{
  "source": "paper PMC12687449",
  "about": "“Membrane disruption attenuates agonist potency in prostanoid receptors” (Biochemical Journal, 2025)",
  "key": {"[1]": {"target": "EP4 receptor conformation sensor (Homo sapiens, UniProt P35408)", "sequence (P35408 1-332 limits assumed)": "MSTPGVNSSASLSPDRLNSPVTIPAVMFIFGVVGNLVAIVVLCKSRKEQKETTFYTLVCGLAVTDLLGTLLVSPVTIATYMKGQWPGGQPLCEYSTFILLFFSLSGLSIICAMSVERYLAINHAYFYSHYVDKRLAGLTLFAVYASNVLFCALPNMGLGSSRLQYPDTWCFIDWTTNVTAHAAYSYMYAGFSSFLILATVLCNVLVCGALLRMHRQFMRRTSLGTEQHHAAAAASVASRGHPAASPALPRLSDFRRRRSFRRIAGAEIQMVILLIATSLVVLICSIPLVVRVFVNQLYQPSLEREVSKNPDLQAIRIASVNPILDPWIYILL", "assay": "FRET-based EP4 receptor conformation sensor stably expressed in HEK293 cells (intact, saponin-permeabilized, membrane fragments)", "assay_type": "cell-based", "details": "for response of about 10 times EC50 normalized to saturating PGE2 concentration: 830 nM 11-deoxy PGE2, pipetting protocol; for Schild plot slope value of fitted linear regression / pKB (Schild plot, abscissa intercept): versus PGE2", "method": "(§1) The cells were washed once with external buffer and subsequently incubated 2 minutes for single-cell FRET measurements or 10 minutes for BRET measurements in 0.05% saponin (AppliChem, Darmstadt, Germany) dissolved in internal buffer. Afterward, the cells were washed five times for single-cell FRET measurements or three times for BRET measurements with internal buffer.\nHEK293 cells stably expressing the EP4 receptor, IP receptor, or DP2 receptor conformation sensor were seeded on 15 cm Ø dishes and grown until optical confluence. The cells were washed once with Dulbecco’s PBS (Capricorn Scientific GmbH), without Ca & Mg and Phenol Red (phosphate-buffered saline, PBS). After adding 5 ml PBS to the cells, the dish was treated with liquid nitrogen until the solution was visibly frozen. These dishes were stored at −80°C until the measurements were carried out. On the day of the measurement, the dishes were removed from the freezer and stored at room temperature until the buffer solution had thawed. The material was collected with a cell scraper and centrifuged (5000 rpm/5 min). The supernatant was discarded, the pellet containing the membrane fragments was resuspended with external buffer containing 0.1% BSA and seeded on microplates. […]"}, "[2]": {"target": "T1, α2A-AR conformation sensor CAM (Mus musculus, UniProt Q01338)", "T1 sequence (Q01338 1-465)": "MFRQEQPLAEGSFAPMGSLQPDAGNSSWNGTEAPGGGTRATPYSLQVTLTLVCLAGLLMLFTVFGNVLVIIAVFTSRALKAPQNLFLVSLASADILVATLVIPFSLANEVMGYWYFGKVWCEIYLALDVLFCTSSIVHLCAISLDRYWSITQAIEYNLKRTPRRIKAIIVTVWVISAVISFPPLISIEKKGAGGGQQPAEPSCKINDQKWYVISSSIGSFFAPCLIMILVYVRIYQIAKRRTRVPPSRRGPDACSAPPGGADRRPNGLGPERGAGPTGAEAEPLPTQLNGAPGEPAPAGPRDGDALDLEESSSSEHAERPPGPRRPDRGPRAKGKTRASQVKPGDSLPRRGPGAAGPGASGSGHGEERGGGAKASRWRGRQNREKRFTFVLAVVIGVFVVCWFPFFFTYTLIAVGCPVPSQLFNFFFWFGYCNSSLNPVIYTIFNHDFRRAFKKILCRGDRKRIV", "assay": "FRET-based α2A-AR CAM conformation sensor, single-cell measurements in HEK293 cells", "parameters": "species or system murine", "method": "as §1\n(§2) The coverslips loaded with stably transfected HEK293 cells containing either the FFA3 receptor, α2A-AR CAM, or ETB receptor conformation sensors were clamped in an Attofluor^TM cell chamber and were washed once with external buffer. Afterward, they were side by side either permeabilized or directly measured at room temperature by the use of an inverted microscope (Elipse Ti2, Nikon, Düsseldorf, Germany), equipped with a 100× oil immersion objective (Plan Apo λ 100 x/1.45 oil ∞/0.17 WD 0.13, Nikon, Düsseldorf, Germany) and dual excitation and dual emission imaging capabilities. […] The fluorescence emission of mT2 and the respective YFP variant was simultaneously collected by a second beamsplitter (488, Chroma, Bellows Falls, Vermont, U.S.A.) and two emission filters (mT2: 474/27, Chroma; YFP: 544/23, Chroma). […] For all single-cell FRET experiments, cells were prospectively selected based on a continuous plasma-membrane fluorescence rim and appropriate fluorescence distribution to ensure a PM-dominant receptor signal. […]"}, "[3]": {"target": "T2, FFA3 receptor conformation sensor (Homo sapiens, UniProt O14843)", "T2 construct": "mT2 insertion and truncation after G314; expressed in transfected cells", "T2 sequence (O14843 1-314 limits assumed)": "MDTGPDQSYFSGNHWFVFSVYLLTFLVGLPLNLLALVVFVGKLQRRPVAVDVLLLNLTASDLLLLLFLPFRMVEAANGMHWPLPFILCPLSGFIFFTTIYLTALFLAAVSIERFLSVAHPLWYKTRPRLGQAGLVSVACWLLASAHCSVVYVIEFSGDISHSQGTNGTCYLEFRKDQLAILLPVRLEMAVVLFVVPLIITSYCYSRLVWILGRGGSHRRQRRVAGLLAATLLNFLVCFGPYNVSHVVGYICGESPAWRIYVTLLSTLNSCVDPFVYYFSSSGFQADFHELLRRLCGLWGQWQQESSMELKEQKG", "assay": "FRET-based FFA3 receptor conformation sensor, single-cell measurements in HEK293 cells", "method": "as §1, §2"}, "ETB receptor": {"target": "T3, ETB receptor (Homo sapiens, UniProt P24530)", "T3 construct": "expressed in transfected cells; host or cells: HEK293T (transient)", "T3 sequence (P24530 27-442)": "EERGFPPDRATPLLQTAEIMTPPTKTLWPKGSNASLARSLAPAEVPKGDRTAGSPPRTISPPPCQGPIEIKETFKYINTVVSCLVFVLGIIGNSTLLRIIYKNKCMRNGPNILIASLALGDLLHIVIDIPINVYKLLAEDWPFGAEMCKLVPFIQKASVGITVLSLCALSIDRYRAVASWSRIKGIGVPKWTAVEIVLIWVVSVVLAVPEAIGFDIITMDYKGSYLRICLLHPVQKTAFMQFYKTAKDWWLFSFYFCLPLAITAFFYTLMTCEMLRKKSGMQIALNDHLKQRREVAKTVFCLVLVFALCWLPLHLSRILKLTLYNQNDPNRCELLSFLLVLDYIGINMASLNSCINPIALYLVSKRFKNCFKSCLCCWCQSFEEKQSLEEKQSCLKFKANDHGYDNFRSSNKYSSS", "assay": "BRET-based G protein activation, wildtype ETB receptor + Gαq biosensor in HEK293T cells", "assay_type": "cell-based", "method": "Two days before BRET measurements were performed, HEK293T cells were transiently transfected with 3 µg of cDNAs containing TP receptor, ETB receptor, DP2 receptor, or S1P3 receptor and 3 µg of cDNAs containing Gβ3-T2A-cpVenus-Gγ9-IRES-Gαq-NLuc or Gβ3-T2A-cpVenus-Gγ9-IRES-Gαo1-NLuc using linear 25 kDa PEI reagent (polyethylenimine, PolyScience Inc., Hirschberg an der Bergstraße, Germany). The ratio between DNA and PEI was 1:3, and 50 µl serum-free DMEM was added per 1 µg DNA. The same amount of serum-free DMEM was also added separately to the PEI solution. DNA-DMEM and PEI-DMEM mixtures were incubated for 5 minutes, followed by incubation of the final mixture for another 10 minutes. […]\nTwo days before the actual measurement, HEK293T cells were transiently transfected and seeded on microplates. […] The measurements were performed using a Spark 20M plate reader (Tecan) at 37°C. Initially, the cells were measured for the baseline emission ratio. After the baseline measurement, 20 µl of external or internal buffer containing differing concentrations of either U-46619, 4-Ala ET-1, PGD,2 or S1P or external or internal buffer alone were added to the cells and measured. […] The cells were measured from the top and the donor luminescence (NLuc) was recorded at 415 to 470 nm and the acceptor luminescence (cpVenus) at 520 to 590 nm. Data were recorded using SparkControl^TM software. […]"}},
  "note": "No end group written: not given here.",
  "data": [
    {"compound": "CCCCC[C@H](O)/C=C/[C@H]1CCC(=O)[C@@H]1C/C=C\\CCCC(=O)O", "note": "[11-deoxy PGE2]", "values": [
      {"measurement": "pEC50", "setting": "[1]; intact HEK293 cells, multiple-cell FRET on plate reader", "result": 7.08},
      {"measurement": "response of about 10 times EC50 normalized to saturating PGE2 concentration", "setting": "[1]; intact cells", "result": "91% ± 3"},
      {"measurement": "response of about 10 times EC50 normalized to saturating PGE2 concentration", "setting": "[1]; saponin-permeabilized cells", "result": "50% ± 3"}
    ]},
    {"compound": "CCCCc1nn(-c2ccccc2C(F)(F)F)c(=O)n1Cc1ccc(-c2ccccc2S(=O)(=O)NC(=O)c2sccc2C)cc1", "note": "[L-161,982]", "values": [
      {"measurement": "Schild plot slope value of fitted linear regression", "setting": "[1]; intact cells", "result": 1.16},
      {"measurement": "pKB (Schild plot, abscissa intercept)", "setting": "[1]; intact cells", "result": 7.7},
      {"measurement": "Schild plot slope value of fitted linear regression", "setting": "[1]; membrane fragments", "result": 0.69},
      {"measurement": "pKB (Schild plot, abscissa intercept)", "setting": "[1]; membrane fragments", "result": 6.6}
    ]},
    {"compound": "NC[C@H](O)c1ccc(O)c(O)c1", "note": "[norepinephrine]", "values": [
      {"measurement": "pEC50", "setting": "[2]; intact cells", "result": 6.10},
      {"measurement": "pEC50", "setting": "[2]; saponin-permeabilized cells", "result": 5.63}
    ]},
    {"compound": "CCC(=O)O", "note": "[propionate, propionic acid]", "values": [
      {"measurement": "pEC50", "setting": "[3]; intact cells", "result": 3.92},
      {"measurement": "pEC50", "setting": "[3]; saponin-permeabilized cells", "result": 3.84}
    ]},
    {"compound": "ASASSLMDKEAVYFAHLDIIW-OH [4-Ala ET-1]", "values": [
      {"measurement": "EC50", "setting": "ETB receptor; intact HEK293T cells", "result": 8.91, "unit": "nM"},
      {"measurement": "EC50", "setting": "ETB receptor; saponin-permeabilized cells with 1 µM GTP", "result": 0.617, "unit": "nM"}
    ]}
  ]
}
